Patent US10968203B2, “Pyrimidinyl-pyridyloxy-naphthyl compounds and methods of treating IRE1-related diseases and disorders” (Genentech, Inc., priority 2017, dated 2021)
Counter-ions that a name gives are not always drawn.

These compounds were tested on XBP1s-luc 293 LUC (assay: cellular PD assay, XBP1s-LUC reporter (Example 903)). Details: Table 1; read-out: XBP1s-luc 293 LUC (IC50).
Assay type: cell-based
Method in brief: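 Cellular IRE1α pathway activity was quantified from the luciferase signal of an XBP1-Luc reporter, where the luciferase fusion is in frame and expressed only from the spliced XBP1 transcript.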

Compared with `Cc1ccc2c(NC(=O)CCC(F)(F)F)cccc2c1Oc1ncccc1-c1ccnc(N[C@H]2CCCNC2)n1` [Example 178, (S)-4,4,4-Trifluoro-N-(6-methyl-5-((3-(2-(piperidin-3-ylamino)pyrimidin-4-yl)pyridin-2-yl)oxy)naphthalen-1-yl)butanamide], `Cc1ccc2c(NC(=O)C3(CF)CC3)cccc2c1Oc1ncccc1-c1ccnc(N[C@H]2CCCNC2)n1` [Example 242, (S)-1-(Fluoromethyl)-N-(6-methyl-5-((3-(2-(piperidin-3-ylamino)pyrimidin-4-yl)pyridin-2-yl)oxy)naphthalen-1-yl)cyclopropane-1-carboxamide] is 2.9-fold higher in IC50: 125 nM for the first, 361 nM for the second. The first is the more potent here.

First: Cc1ccc2c(NC[C@H](O)C(F)(F)F)cccc2c1Oc1ncccc1-c1ccnc(N[C@@H]2CNC[C@H](C)C2)n1 [Example 321, (S)-1,1,1-Trifluoro-3-((6-methyl-5-((3-(2-(((3S,5R)-5-methylpiperidin-3-yl)amino)pyrimidin-4-yl)pyridin-2-yl)oxy)naphthalen-1-yl)amino)propan-2-ol]
Second: CC[C@@H](O)CNc1cccc2c(Oc3ncccc3-c3ccnc(N[C@H]4CCCNC4)n3)c(C)ccc12 [Example 312, (R)-1-((6-Methyl-5-((3-(2-((S)-piperidin-3-ylamino)pyrimidin-4-yl)pyridin-2-yl)oxy)naphthalen-1-yl)amino)butan-2-ol]
The IC50 of the first is 3.7-fold lower: 7.36 nM for the first, 27.4 nM for the second.

`Cc1ccc2c(NS(=O)(=O)CC3CCCC3)cccc2c1Oc1ncccc1-c1ccnc(N[C@H]2CCCNC2)n1` [Example 128, (S)-1-Cyclopentyl-N-(6-methyl-5-((3-(2-(piperidin-3-ylamino)pyrimidin-4-yl)pyridin-2-yl)oxy)naphthalen-1-yl)methanesulfonamide] and `Cc1ccc2c(NS(=O)(=O)C3CCC3)cccc2c1Oc1ncccc1-c1ccnc(N[C@H]2CCCNC2)n1` [Example 107, (S)—N-(6-Methyl-5-((3-(2-(piperidin-3-ylamino)pyrimidin-4-yl)pyridin-2-yl)oxy)naphthalen-1-yl)cyclobutanesulfonamide hydrochloride] are within 1.5-fold of each other in IC50: 317 nM for the first, 252 nM for the second.

Going from `Cc1ccc2c(NCC(C)C)cccc2c1Oc1ncccc1-c1ccnc(N[C@H]2CCCNC2)n1` [Example 349, (S)-4-(2-((5-(Isobutylamino)-2-methylnaphthalen-1-yl)oxy)pyridin-3-yl)-N-(piperidin-3-yl)pyrimidin-2-amine] to `Cc1ccc2c(NCC(C)C#N)cccc2c1Oc1ncccc1-c1ccnc(N[C@H]2CCCNC2)n1` (single isomer, unassigned) [Example 382], the IC50 falls from 432 nM to 62.3 nM (6.9-fold).

`Cc1ccc2c(Oc3ccccn3)cccc2c1Oc1ncccc1-c1ccnc(N[C@H]2CCCNC2)n1` [Example 239, (S)-4-(2-((2-Methyl-5-(pyridin-2-yloxy)naphthalen-1-yl)oxy)pyridin-3-yl)-N-(piperidin-3-yl)pyrimidin-2-amine] and `Cc1ccc2c(NC(=O)c3ccccn3)cccc2c1Oc1ncccc1-c1ccnc(N[C@H]2CCCNC2)n1` [Example 175, (S)—N-(6-Methyl-5-((3-(2-(piperidin-3-ylamino)pyrimidin-4-yl)pyridin-2-yl)oxy)naphthalen-1-yl)picolinamide] are within 1.5-fold of each other in IC50: 245 nM for the first, 333 nM for the second.

First: Cc1ccc2c(NCC3CC3(F)F)cccc2c1Oc1ncccc1-c1ccnc(N[C@H]2CCCNC2)n1 (mixture of isomers) [Example 341, 4-(2-((5-(((2,2-Difluorocyclopropyl)methyl)amino)-2-methylnaphthalen-1-yl)oxy)pyridin-3-yl)-N—((S)-piperidin-3-yl)pyrimidin-2-amine]
Second: Cc1ccc2c(NC(=O)[C@H]3CC3(C)C)cccc2c1Oc1ncccc1-c1ccnc(N[C@H]2CCCNC2)n1 (single isomer, unassigned) [Example 288]
The IC50 of the first is 1.6-fold lower: 118 nM for the first, 185 nM for the second. The first is the more potent here.

First: Cc1ccc2c(NS(=O)(=O)Cc3ccccc3C(F)(F)F)cccc2c1Oc1ncccc1-c1ccnc(N[C@H]2CCCNC2)n1 [Example 142, (S)—N-(6-Methyl-5-((3-(2-(piperidin-3-ylamino)pyrimidin-4-yl)pyridin-2-yl)oxy)naphthalen-1-yl)-1-(2-(trifluoromethyl)phenyl)methanesulfonamide]
Second: Cc1ccc2c(NS(=O)(=O)Cc3ccccc3)c(F)ccc2c1Oc1ncccc1-c1ccnc(N[C@H]2CCCNC2)n1 [Example 283, (S)—N-(2-Fluoro-6-methyl-5-((3-(2-(piperidin-3-ylamino)pyrimidin-4-yl)pyridin-2-yl)oxy)naphthalen-1-yl)-1-phenylmethanesulfonamide]
The IC50 of the first is 2.7-fold higher: 8 nM for the first, 2.96 nM for the second. The second is the more potent here.

Compared with `Cc1ccc2c(NC(=O)[C@@H]3CC34CCCC4)cccc2c1Oc1ncccc1-c1ccnc(N[C@H]2CCCNC2)n1` (single isomer, unassigned) [Example 254], `Cc1ccc2c(NC(=O)[C@@H]3CCCC3C)cccc2c1Oc1ncccc1-c1ccnc(N[C@H]2CCCNC2)n1` (single isomer, unassigned) [Example 373] is 2.8-fold higher in IC50: 69 nM for the first, 193 nM for the second. The first is the more potent here.

`CC[C@H]1CCN(c2cccc3c(Oc4ncccc4-c4ccnc(N[C@@H]5CNC[C@H](C)C5)n4)c(C)ccc23)C1=O` (single isomer, unassigned) [Example 332] and `Cc1ccc2c(N3CCC(C)(C)C3=O)cccc2c1Oc1ncccc1-c1ccnc(N[C@H]2CCCNC2)n1` [Example 238, (S)-3,3-Dimethyl-1-(6-methyl-5-((3-(2-(piperidin-3-ylamino)pyrimidin-4-yl)pyridin-2-yl)oxy)naphthalen-1-yl)pyrrolidin-2-one] are within 1.5-fold of each other in IC50: 194 nM for the first, 275 nM for the second.

Compared with `Cc1ccc2c(NS(=O)(=O)CC(C)(C)C)cccc2c1Oc1ncccc1-c1ccnc(N[C@H]2CCCNC2)n1` [Example 139, (S)-2,2-Dimethyl-N-(6-methyl-5-((3-(2-(piperidin-3-ylamino)pyrimidin-4-yl)pyridin-2-yl)oxy)naphthalen-1-yl)propane-1-sulfonamide], `Cc1ccc2c(NS(=O)(=O)CC(C)C)cccc2c1Oc1ncccc1-c1ccnc(N[C@H]2CCCNC2)n1` [Example 121, (S)-2-Methyl-N-(6-methyl-5-((3-(2-(piperidin-3-ylamino)pyrimidin-4-yl)pyridin-2-yl)oxy)naphthalen-1-yl)propane-1-sulfonamide hydrochloride] is 2.3-fold lower in IC50: 241 nM for the first, 103 nM for the second. The second is the more potent here.

`Cc1ccc2c(NC(=O)C3(C)CC3)c(F)ccc2c1Oc1ncccc1-c1ccnc(N[C@H]2CCCNC2)n1` [Example 365, (S)—N-(2-Fluoro-6-methyl-5-((3-(2-(piperidin-3-ylamino)pyrimidin-4-yl)pyridin-2-yl)oxy)naphthalen-1-yl)-1-methylcyclopropanecarboxamide] and `CCCS(=O)(=O)Nc1cccc2c(Oc3ncccc3-c3ccnc(N[C@H]4CCCNC4)n3)c(F)ccc12` [Example 305, (S)—N-(6-Fluoro-5-((3-(2-(piperidin-3-ylamino)pyrimidin-4-yl)pyridin-2-yl)oxy)naphthalen-1-yl)propane-1-sulfonamide] are within 1.5-fold of each other in IC50: 438 nM for the first, 481 nM for the second.

First: Cc1ccc2c(NC[C@H](O)c3ccccc3)cccc2c1Oc1ncccc1-c1ccnc(N[C@H]2CCCNC2)n1 [Example 309, (R)-2-((6-Methyl-5-((3-(2-((S)-piperidin-3-ylamino)pyrimidin-4-yl)pyridin-2-yl)oxy)naphthalen-1-yl)amino)-1-phenylethanol]
Second: Cc1ccc2c(NS(=O)(=O)Cc3ccccc3)cccc2c1Oc1ncccc1-c1ccnc(NC2CNCCC2F)n1 (centres unmarked) [Example 162, N-(5-((3-(2-((4-Fluoropiperidin-3-yl)amino)pyrimidin-4-yl)pyridin-2-yl)oxy)-6-methylnaphthalen-1-yl)-1-phenylmethanesulfonamide]
The IC50 of the first is 6.5-fold higher: 433 nM for the first, 67 nM for the second.

Same assay, conditions: Table 2; read-out: XBP1s-luc 293 LUC (IC50)

Compared with `Cc1c(F)c(NS(=O)(=O)Cc2ccccc2)c2ccccc2c1Oc1ncccc1-c1ccnc(N[C@H]2CCCNC2)n1` [Example 480, (S)—N-(2-Fluoro-3-methyl-4-((3-(2-(piperidin-3-ylamino)pyrimidin-4-yl)pyridin-2-yl)oxy)naphthalen-1-yl)-1-phenylmethanesulfonamide], `Cc1ccc2c(NS(=O)(=O)Cc3ccc(OC(F)(F)F)cc3)c(F)ccc2c1Oc1ncccc1-c1ccnc(N[C@H]2CCCNC2)n1` [Example 419, (S)—N-(2-Fluoro-6-methyl-5-((3-(2-(piperidin-3-ylamino)pyrimidin-4-yl)pyridin-2-yl)oxy)naphthalen-1-yl)-1-(4-(trifluoromethoxy)phenyl)methanesulfonamide hydrochloride] is 18-fold higher in IC50: 7 nM for the first, 129 nM for the second.

Going from `Cc1ccc2c(NS(=O)(=O)C[C@@H]3CCCO3)c(F)ccc2c1Oc1ncccc1-c1ccnc(N[C@H]2CCCNC2)n1` (single isomer, unassigned) [Example 416, hydrochloride] to `Cc1ccc2c(NS(=O)(=O)CC3CC3(F)F)c(F)ccc2c1Oc1ncccc1-c1ccnc(N[C@H]2CCCNC2)n1` (mixture of isomers) [Example 467, 1-(2,2-Difluorocyclopropyl)-N-(2-fluoro-6-methyl-5-((3-(2-((S)-piperidin-3-ylamino)pyrimidin-4-yl)pyridin-2-yl)oxy)naphthalen-1-yl)methanesulfonamide hydrochloride], the IC50 falls from 105 nM to 42 nM (2.5-fold). The second is the more potent here.

Compared with `Cc1ccc2c(N[C@@H]3CCCC[C@H]3O)cccc2c1Oc1ncccc1-c1ccnc(N[C@H]2CCCNC2)n1` (single isomer, unassigned) [Example 446, hydrochloride], `Cc1ccc2c(NS(=O)(=O)CC3(F)CC3)c(F)ccc2c1Oc1ncccc1-c1ccnc(N[C@H]2CCCNC2)n1` [Example 453, (S)—N-(2-Fluoro-6-methyl-5-((3-(2-(piperidin-3-ylamino)pyrimidin-4-yl)pyridin-2-yl)oxy)naphthalen-1-yl)-1-(1-fluorocyclopropyl)methanesulfonamide hydrochloride] is 3.7-fold lower in IC50: 67 nM for the first, 18 nM for the second. The second is the more potent here.

Going from `Cc1ccc2c(NS(=O)(=O)Cc3ccccc3F)c(F)ccc2c1Oc1ncccc1-c1ccnc(N[C@@H]2CNC[C@@H](F)C2)n1` (single isomer, unassigned) [Example 464, hydrochloride] to `Cc1ccc2c(NS(=O)(=O)c3cccc4c3ccn4C)c(F)ccc2c1Oc1ncccc1-c1ccnc(N[C@H]2CCCNC2)n1` [Example 458, N-[2-Fluoro-6-methyl-5-[[3-[2-[[(3S)-3-piperidyl]amino]pyrimidin-4-yl]-2-pyridyl]oxy]-1-naphthyl]-1-methyl-indole-4-sulfonamide], the IC50 rises from 4 nM to 19 nM (4.8-fold). The first is the more potent here.
